Measurements taken from ChEMBL document CHEMBL1149604, “Disaccharide analogs as probes for glycosyltransferases in Mycobacterium tuberculosis” (Bioorg Med Chem, 2007).

What follows are compounds tested on Mycolicibacterium smegmatis (assay: Activity of Mycobacterial smegmatis-arabinosyltransferase after 1 hr).
For `[N-]=[N+]=Nc1cccc2c(S(=O)(=O)NCCO[C@H]3O[C@H](CO[C@H]4O[C@H](CO)[C@@H](O)[C@@H]4O)[C@@H](O)[C@@H]3O)cccc12`, the Km was 3070 µM. `CN(C)c1cccc2c(S(=O)(=O)NCCO[C@H]3O[C@H](CO[C@H]4O[C@H](CO)[C@@H](O)[C@@H]4O)[C@@H](O)[C@@H]3O)cccc12` showed a Km of 680 µM.

What follows are compounds tested on Mycolicibacterium smegmatis (assay: Activity of Mycobacterial smegmatis-galactosyltransferase after 1 hr).
For `CN(C)c1cccc2c(S(=O)(=O)NCCO[C@@H]3O[C@@H](C[C@H](CO)O[C@@H]4O[C@@H]([C@@H](O)CO)[C@H](O)[C@H]4O)[C@H](O)[C@H]3O)cccc12`, the Km was 7330 µM. For `[N-]=[N+]=Nc1cccc2c(S(=O)(=O)NCCO[C@@H]3O[C@@H](C[C@H](CO)OC4O[C@@H]([C@@H](O)CO)[C@H](O)[C@H]4O)[C@H](O)[C@H]3O)cccc12` (stereo partly specified), the Km was 2770 µM. In the case of `CN(C)c1cccc2c(S(=O)(=O)NCCO[C@@H]3O[C@@H]([C@@H](O)CO[C@@H]4O[C@@H]([C@@H](O)CO)[C@H](O)[C@H]4O)[C@H](O)[C@H]3O)cccc12`, the Km is reported as 2380 µM. For `[N-]=[N+]=Nc1cccc2c(S(=O)(=O)NCCO[C@@H]3O[C@@H]([C@@H](O)CO[C@@H]4O[C@@H]([C@@H](O)CO)[C@H](O)[C@H]4O)[C@H](O)[C@H]3O)cccc12`, the Km was 1980 µM.
